Test results reported in patent EP0408749A1, “DERIVATIVES OF 3,18-DIHYDROXY-9,13-EPOXYLABDANE, METHOD OF OBTAINING THEM AND A HEMOSTATIC PHARMACEUTICAL PREPARATION BASED THEREON” (TASHKENTSKY GOSUDARSTVENNY UNIVERSITET IMENI V.I. LENINA, priority 1988, dated 1990).
Where a name gives a salt, the structure may show the parent alone.

Tests used:
blood coagulation [1] = assay: Thromboelastogram in vitro; type: biochemical; conditions: for Time of the reaction of blood coagulation, R / Coagulation index, C: in vitro, experiment (O)
Protocol: (§1) The pharmacological studies of the hemostatic activity of the compounds according to the present invention was conducted in vivo and in vitro with the use of biochemical tests and by means of a thromboelasto- graph.
The effect of the compound according to the present invention , viz. 3,1,18-trihydroxy-9,13-epofil- abdan-15-ic acid sodium salt trihydrate on hemostasis was studied in vitro with the use of a thromboelastogram.

white non-descipt mice = assay: Acute toxicity, intraperitoneal; type: in vivo
Protocol: The compound according to the present invention, i.e. 3,16,18-trihydroxy-3,13-epoxylabdan-15-ic acid sodium salt trihydrate was tested for an acute toxicity.

heparin = assay: Effect on heparin
blood coagulation system [2] = assay: Biochemical tests of the blood coagulation system in dogs, intravenous; type: in vivo; conditions: dog, 25 mg/kg intravenously; for Time of blood coagulation / Tolerance of the plasma to heparin / Trombin time / Time of plasma recalcification: mean M; for Time of blood coagulation: 10 animals, initial 5.1; for Tolerance of the plasma to heparin: initial 6.8; for Trombin time: initial 17.0; for Time of plasma recalcification: initial 117.0
Protocol: as §1
(§2) The blood for examination was taken from an opened dog's thigh vein prior to administration of the compound and 10, 30, 60, 90 and 120 min thereafter. For the cuvette of the thromboelasto- graph the blood was taken in the amount of 0.36 ml, while for biochemical tests -up to 10 ml (as the con- servant use was made of a 1.34% solution of sodium oxalate which was added in the ratio of 1:9).
In another series of experiments the effect of the compound according to the present invention was studied in biochemical tests.

local blood hemorrhage = assay: Local blood hemorrhage, local application; type: in vivo; conditions: local effect, concentration of 0.5%
From the text: The study of the effect provided by the compound according to the present invention on the local blood hemorrhage has shown that the local effect of the compound in tne concentration of 0.5% lowers the flood loss by 83% and the hemorrhage duration is reduced by 60%.

blood coagulation [3] = assay: Thromboelastogram in dogs after administration of the compound; type: in vivo; conditions: dog, 25 mg/kg; for Time of reaction of blood coagulation, R / Time of the clot formation K: arithmetic mean M; for Time of reaction of blood coagulation, R: 10 animals, initial 23.0; for Time of the clot formation K: initial 20.0
Protocol: as §1, §2
The next series of experiments - administration of the compound according to the present invention in the dose of 25 mg/kg of the animals' bodymass.

thrombocytes = assay: Effect on thrombocytes
From the text: Furthermore, the compound according to the present invention increases the number of thrombocytes and activates adhesion and aggregation of thrombocytes.

blood coagulation [4] = assay: Thromboelastogram in dogs after administration of the compound; type: in vivo; conditions: 10 mg/kg
rats, dogs = conditions: in vivo
blood coagulation [5] = assay: Blood coagulation in dogs after hypodermal administration of a 20% oily solution; type: in vivo; conditions: 50 mg/kg hypodermally; for Time of blood coagulation / Fibrinolytic activity of blood / Time of plasma recalcification / Tolerance of plasma to heparin / Fibrinogen: mean M; for Time of blood coagulation: prior 318.0; for Fibrinolytic activity of blood: prior 41.0; for Time of plasma recalcification: prior 106.0; for Tolerance of plasma to heparin: prior 214.0; for Fibrinogen: prior 435.0
Protocol: as §1
[…] For the cuvette of the thromboelasto- graph the blood was taken in the amount of 0.36 ml, while for biochemical tests -up to 10 ml (as the con- servant use was made of a 1.34% solution of sodium oxalate which was added in the ratio of 1:9).
The compound according to the invention , viz. ? 3,18-dihydroxy-9,13-epoxylabdan-15-16-olide was administered to dogs (a group of 5 animals) in the dose of 50 mg/kg of the animal's bodymass hypodermally as a 20% oily solution.

mice = assay: LD50, subcutaneous 20% oily solution; type: in vivo; conditions: subcutaneously (hypodermal)
Protocol: The LD50 was determined on mice (a group of 30 animals with. a bodymass of 20-21 g). The mice were administered with 3,18-dihydroxy-9,13-epoxylabdan-15,16-olide subcutaneously (a 20% oily solution). In the case of this manner of administration (i.e. hypodermal one) the LD50 was equal to more than 2,000 mg/kg of the animal's bodymass.

hemostatic effect [6] = conditions: prior art statement; cited from earlier work
blood coagulation system [7] = assay: Comparative clinical study of hemostatic effect against dicynone; type: in vivo; conditions: twenty post-operation patients, 20 minutes after introduction, p < 0.05
Protocol: The pharmaceutical preparation according to the present invention and dicynone were subjected to a comparative study for their hemostatic effect. Twenty post-operation patients (cardiorevivification department). The preparations were administered in the amount of […]. For the determination of the hemostatic effect determined by the functional state of the blood coagulation system the following characteristics were studied: thromboelastogram, the time of recalcification of citrate plasma and the plasma tolerance towards heparin. 20 minutes after the introduction of dicynone the parameter of the time of reaction of the rate of formation of thromboplastin was decreased by 32%, after administration of the preparation according to the present invention - by 75%, the time of coagulation was reduced, respectively, by 2'1 and 43%, t,ie time of recalcification of plasma decreased by 43 and 61% respectively, tolerance of plasma to heparin increased by 36 and 52%, respectively (at an error of p < 0.05).

hemostatic effect [8] = conditions: after administration to patients; cited from earlier work
[9] = 30 minutes after administration
[10] = 60 minutes after administration
[11] = 90 minutes after administration
[12] = 120 minutes after administration

3,16,18-trihydroxy-9,13-epoxylabdan-15-ic acid sodium salt trihydrate
Time of the reaction of blood coagulation, R (blood coagulation [1]; 0.01 mg, control 26.0): 7.0 mm | Time of the reaction of blood coagulation, R (blood coagulation [1]; 0.1 mg, control 11.0): 8.0 mm | Coagulation index, C (blood coagulation [1]; 0.1 mg, control 19.6): 20.8 mm | Coagulation index, C (blood coagulation [1]; 1 mg, control 23.0): 8.0 mm | Time of the reaction of blood coagulation, R (blood coagulation [1]; 5 mg, control 18.0): 32.0 mm | Coagulation index, C (blood coagulation [1]; 5 mg, control 19.0): 3.4 mm | parameter R (the time of reaction of blood coagulation) (blood coagulation [1]; in vitro, 0.01, 0.1, 0.2 and 1.0 mg per 0.26 ml of blood): substantially reduces | LD50 (white non-descipt mice; intraperitoneal administration): over 2,000 mg/kg of the animal's bodymass | death of the animals (white non-descipt mice; intraperitoneal, 1,000 and 2,000 mg/kg): no death | effect on heparin (heparin): did not prevent the effect of heparin but weakened it | blood coagulation time is shortened by (blood coagulation system [2]): 35-40% | thrombin time is reduced by (blood coagulation system [2]): 30-35% | time of plasma recalcification shortened by (blood coagulation system [2]): 33-39% | tolerance of plasma to heparin is increased by (blood coagulation system [2]): 30-40% | Time of blood coagulation (blood coagulation system [2]; [9]): 3.9 min | Time of blood coagulation (blood coagulation system [2]; [10]): 3.7 min | Time of blood coagulation (blood coagulation system [2]; [11]): 3.0 min | Time of blood coagulation (blood coagulation system [2]; [12]): 3.4 min | Tolerance of the plasma to heparin (blood coagulation system [2]; [9]): 4,8 min | Trombin time (blood coagulation system [2]; [9]): 12.0 s | Time of plasma recalcification (blood coagulation system [2]; [9]): 78.0 s | Tolerance of the plasma to heparin (blood coagulation system [2]; [10]): 4.6 min | Trombin time (blood coagulation system [2]; [10]): 12.0 s | Time of plasma recalcification (blood coagulation system [2]; [10]): 79.0 s | Tolerance of the plasma to heparin (blood coagulation system [2]; [11]): 4.3 min | Trombin time (blood coagulation system [2]; [11]): 11.0 s | Time of plasma recalcification (blood coagulation system [2]; [11]): 74.0 s | Tolerance of the plasma to heparin (blood coagulation system [2]; [12]): 4.1 min | Trombin time (blood coagulation system [2]; [12]): 11.0 s | Time of plasma recalcification (blood coagulation system [2]; [12]): 71.0 s | hemorrhage duration is reduced by (local blood hemorrhage): 60% | lowers the flood loss by (local blood hemorrhage): 83% | coagulation time K is reduced by (blood coagulation [3]): 40-55% | factor C (coagulation index) increased by (blood coagulation [3]): 71-133% | Time of reaction of blood coagulation, R (blood coagulation [3]; column 2 (30 min by the note to Table 3)): 10.0 mm | Time of reaction of blood coagulation, R (blood coagulation [3]; column 3 (60 min by the note to Table 3)): 12.0 mm | Time of reaction of blood coagulation, R (blood coagulation [3]; column 4 (90 min by the note to Table 3)): 9.0 mm | Time of reaction of blood coagulation, R (blood coagulation [3]; column 5 (120 min by the note to Table 3)): 11.0 mm | Time of the clot formation K (blood coagulation [3]; fifth value column (120 min by the note to Table 3)): 9.0 mm | Time of the clot formation K (blood coagulation [3]; fourth value column (90 min by the note to Table 3)): 10.0 mm | Time of the clot formation K (blood coagulation [3]; second value column (30 min by the note to Table 3)): 12.0 mm | Time of the clot formation K (blood coagulation [3]; third value column (60 min by the note to Table 3)): 11.0 mm | adhesion and aggregation of thrombocytes (thrombocytes): activates | number of thrombocytes (thrombocytes): increases | process of blood coagulation (blood coagulation [4]): promoted | local irritation effect (rats, dogs): neither provided any local irritation effect

3,18-dihydroxy-9,13-epoxylabdan-15,16-olide
blood coagulation time decreases by (blood coagulation [5]; 20% oily solution): 51% | time of recalcification decreases by (blood coagulation [5]; 20% oily solution): 32% | tolerance of the plasma to heparin was increased by (blood coagulation [5]; 20% oily solution): 37% | Time of blood coagulation (blood coagulation [5]; 20% oily solution, 60 min after administration): 269.0 s | Time of blood coagulation (blood coagulation [5]; 20% oily solution, 120 min after administration): 218.0 s | Time of blood coagulation (blood coagulation [5]; 20% oily solution, 180 min after administration): 159.0 s | Fibrinolytic activity of blood (blood coagulation [5]; 60 min after administration): 53.0% | Time of plasma recalcification (blood coagulation [5]; 60 min after administration): 102.0 s | Tolerance of plasma to heparin (blood coagulation [5]; 60 min after administration): 192.0 s | Fibrinogen (blood coagulation [5]; 60 min after administration): 387.0 mg% | Fibrinolytic activity of blood (blood coagulation [5]; 120 min after administration): 54.0% | Time of plasma recalcification (blood coagulation [5]; 120 min after administration): 84.0 s | Tolerance of plasma to heparin (blood coagulation [5]; 120 min after administration): 138.0 s | Fibrinogen (blood coagulation [5]; 120 min after administration): 361.0 mg% | Fibrinolytic activity of blood (blood coagulation [5]; 180 min after administration): 43.0% | Time of plasma recalcification (blood coagulation [5]; 180 min after administration): 72.0 s | Tolerance of plasma to heparin (blood coagulation [5]; 180 min after administration): 135.0 s | Fibrinogen (blood coagulation [5]; 180 min after administration): 293.0 mg% | LD50 (mice): more than 2,000 mg/kg of the animal's bodymass

3, 15, 16, 18-tetrahydroxy-9,13-epoxylabdane
hemostatic effect (hemostatic effect [6]): weak

O=S(=O)(O)c1cc(O)ccc1O [dicynone, 2,5-dihydroxybenzenesulphonate-j-diethylammonium salt]
time of recalcification of plasma decreased by (blood coagulation system [7]): 43% | tolerance of plasma to heparin increased by (blood coagulation system [7]): 36% | time of reaction of the rate of formation of thromboplastin decreased by (blood coagulation system [7]; amount of 75 g as printed): 32%

CC1(S(=O)(=O)[O-])CC(=O)c2ccccc2C1=O.[Na+] (stereo not shown) [sodium 2,3-dihydro-2-methyl-1,4-naphthoquinone-2-sulphonate]
hemostatic effect is noted within (hemostatic effect [8]): 12 to 18 h
